Experimental data taken from ChEMBL document CHEMBL4507305, “Data for DCP probe TP-024” (2021).

Columns and labels:
[1] = target: AP2-associated protein kinase 1 (Homo sapiens) (UniProt Q2M2I8); conditions: Compound concentration 1000.0 nM
[2] = tested on: Tyrosine-protein kinase ABL1 (Homo sapiens), P00519 [F317I]; conditions: Compound concentration 1000.0 nM
[3] = tested on: Tyrosine-protein kinase ABL1 (Homo sapiens), P00519 [H396P]; conditions: Compound concentration 1000.0 nM
[4] = tested on: Tyrosine-protein kinase ABL1 (Homo sapiens), P00519 [M351T]; conditions: Compound concentration 1000.0 nM
[5] = target: Atypical kinase COQ8A, mitochondrial (Homo sapiens) (UniProt Q8NI60); conditions: Compound concentration 1000.0 nM
[6] = target: BMP-2-inducible protein kinase (Homo sapiens) (UniProt Q9NSY1); conditions: Compound concentration 1000.0 nM
BMP-2-inducible protein kinase (Homo sapiens), sequence (Q9NSY1 whole entry, looked up): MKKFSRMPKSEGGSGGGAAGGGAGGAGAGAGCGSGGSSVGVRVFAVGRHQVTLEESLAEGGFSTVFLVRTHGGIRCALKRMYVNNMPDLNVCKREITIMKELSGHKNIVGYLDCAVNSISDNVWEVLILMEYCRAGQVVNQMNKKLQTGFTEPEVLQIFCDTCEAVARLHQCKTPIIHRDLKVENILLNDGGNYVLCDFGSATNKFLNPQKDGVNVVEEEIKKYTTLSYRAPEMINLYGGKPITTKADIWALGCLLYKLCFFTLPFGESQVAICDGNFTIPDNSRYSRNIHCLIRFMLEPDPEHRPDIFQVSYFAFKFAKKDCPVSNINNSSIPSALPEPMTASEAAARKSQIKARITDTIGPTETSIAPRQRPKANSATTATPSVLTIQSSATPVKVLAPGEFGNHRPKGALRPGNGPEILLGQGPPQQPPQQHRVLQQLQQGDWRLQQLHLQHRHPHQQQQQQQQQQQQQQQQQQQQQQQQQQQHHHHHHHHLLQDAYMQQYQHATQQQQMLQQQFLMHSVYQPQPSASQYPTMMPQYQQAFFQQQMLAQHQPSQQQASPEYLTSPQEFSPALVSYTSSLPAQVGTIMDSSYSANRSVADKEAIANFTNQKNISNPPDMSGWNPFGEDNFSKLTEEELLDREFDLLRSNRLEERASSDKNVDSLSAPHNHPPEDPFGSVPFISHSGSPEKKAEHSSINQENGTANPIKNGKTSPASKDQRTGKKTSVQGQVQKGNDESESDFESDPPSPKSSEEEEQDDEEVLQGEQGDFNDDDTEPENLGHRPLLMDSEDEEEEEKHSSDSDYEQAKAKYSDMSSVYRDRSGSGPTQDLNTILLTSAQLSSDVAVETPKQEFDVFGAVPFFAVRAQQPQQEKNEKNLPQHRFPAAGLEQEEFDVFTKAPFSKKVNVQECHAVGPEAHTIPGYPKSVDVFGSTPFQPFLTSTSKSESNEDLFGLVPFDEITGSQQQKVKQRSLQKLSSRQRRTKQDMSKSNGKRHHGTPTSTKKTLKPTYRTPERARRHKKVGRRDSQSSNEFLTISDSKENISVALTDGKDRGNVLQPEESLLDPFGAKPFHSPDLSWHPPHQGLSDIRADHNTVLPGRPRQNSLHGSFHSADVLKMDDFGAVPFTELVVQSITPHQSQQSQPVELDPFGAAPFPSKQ

[7] = target: Bone morphogenetic protein receptor type-2 (Homo sapiens) (UniProt Q13873); conditions: Compound concentration 1000.0 nM
[8] = target: Calcium/calmodulin-dependent protein kinase kinase 1 (Homo sapiens) (UniProt Q8N5S9); conditions: Compound concentration 1000.0 nM
Calcium/calmodulin-dependent protein kinase kinase 1 (Homo sapiens), sequence (Q8N5S9 whole entry, looked up): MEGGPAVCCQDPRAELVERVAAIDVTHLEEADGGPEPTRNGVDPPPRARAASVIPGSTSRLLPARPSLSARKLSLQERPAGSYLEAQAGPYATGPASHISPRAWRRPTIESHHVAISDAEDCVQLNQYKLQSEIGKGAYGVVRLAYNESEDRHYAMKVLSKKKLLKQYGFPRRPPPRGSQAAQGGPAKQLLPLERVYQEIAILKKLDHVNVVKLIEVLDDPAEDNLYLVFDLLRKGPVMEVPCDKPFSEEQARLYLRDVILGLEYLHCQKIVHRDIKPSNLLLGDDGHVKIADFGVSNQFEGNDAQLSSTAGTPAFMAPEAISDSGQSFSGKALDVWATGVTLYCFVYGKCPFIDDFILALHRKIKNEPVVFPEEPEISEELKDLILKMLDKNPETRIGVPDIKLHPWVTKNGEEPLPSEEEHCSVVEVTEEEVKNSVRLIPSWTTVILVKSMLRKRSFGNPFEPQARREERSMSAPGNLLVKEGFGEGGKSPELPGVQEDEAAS

[9] = target: Peripheral plasma membrane protein CASK (Homo sapiens) (UniProt O14936); conditions: Compound concentration 1000.0 nM
[10] = target: Cyclin-dependent kinase 4 (Homo sapiens) (UniProt P11802); conditions: Compound concentration 1000.0 nM
[11] = target: Dual specificity tyrosine-phosphorylation-regulated kinase 2 (Homo sapiens) (UniProt Q92630); conditions: Compound concentration 1000.0 nM
[12] = tested on: Epidermal growth factor receptor (Homo sapiens), P00533 [G719C]; conditions: Compound concentration 1000.0 nM
[13] = tested on: Epidermal growth factor receptor (Homo sapiens), P00533 [L858R]; conditions: Compound concentration 1000.0 nM
[14] = target: Ephrin type-A receptor 7 (Homo sapiens) (UniProt Q15375); conditions: Compound concentration 1000.0 nM
[15] = target: Fibroblast growth factor receptor 4 (Homo sapiens) (UniProt P22455); conditions: Compound concentration 1000.0 nM
[16] = target: Receptor-type tyrosine-protein kinase FLT3 (Homo sapiens) (UniProt P36888); conditions: Compound concentration 1000.0 nM
[17] = tested on: Receptor-type tyrosine-protein kinase FLT3 (Homo sapiens), P36888 [D835V]; conditions: Compound concentration 1000.0 nM
[18] = tested on: Receptor-type tyrosine-protein kinase FLT3 (Homo sapiens), P36888 [K663Q]; conditions: Compound concentration 1000.0 nM
[19] = tested on: Receptor-type tyrosine-protein kinase FLT3 (Homo sapiens), P36888 [N841I]; conditions: Compound concentration 1000.0 nM
[20] = target: Glycogen synthase kinase-3 alpha (Homo sapiens) (UniProt P49840); conditions: Compound concentration 1000.0 nM
Glycogen synthase kinase-3 alpha (Homo sapiens), sequence (P49840 2-483 limits assumed): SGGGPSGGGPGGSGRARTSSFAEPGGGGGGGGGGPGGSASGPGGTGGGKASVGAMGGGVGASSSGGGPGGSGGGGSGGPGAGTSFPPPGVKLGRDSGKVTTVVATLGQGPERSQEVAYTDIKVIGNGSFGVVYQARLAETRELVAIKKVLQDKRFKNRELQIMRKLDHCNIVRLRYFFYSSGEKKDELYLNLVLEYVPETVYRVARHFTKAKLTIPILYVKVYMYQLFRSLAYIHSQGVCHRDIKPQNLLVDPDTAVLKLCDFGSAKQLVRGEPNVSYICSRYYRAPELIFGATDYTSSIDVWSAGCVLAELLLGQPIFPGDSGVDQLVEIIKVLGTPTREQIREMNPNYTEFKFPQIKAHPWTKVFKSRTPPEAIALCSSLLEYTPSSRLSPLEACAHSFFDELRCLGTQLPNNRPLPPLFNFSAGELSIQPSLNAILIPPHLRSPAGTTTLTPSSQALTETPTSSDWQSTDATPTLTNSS

[21] = target: Homeodomain-interacting protein kinase 3 (Homo sapiens) (UniProt Q9H422); conditions: Compound concentration 1000.0 nM
[22] = tested on: Mast/stem cell growth factor receptor Kit (Homo sapiens), P10721 [A829P]; conditions: Compound concentration 1000.0 nM
[23] = target: Mitogen-activated protein kinase kinase kinase 4 (Homo sapiens) (UniProt Q9Y6R4); conditions: Compound concentration 1000.0 nM
[24] = target: Serine/threonine-protein kinase MARK1 (Homo sapiens) (UniProt Q9P0L2); conditions: Compound concentration 1000.0 nM
[25] = target: Dual specificity mitogen-activated protein kinase kinase 5 (Homo sapiens) (UniProt Q13163); conditions: Compound concentration 1000.0 nM
[26] = target: MAP kinase-interacting serine/threonine-protein kinase 1 (Homo sapiens) (UniProt Q9BUB5); conditions: Compound concentration 1000.0 nM
MAP kinase-interacting serine/threonine-protein kinase 1 (Homo sapiens), sequence (Q9BUB5 whole entry, looked up): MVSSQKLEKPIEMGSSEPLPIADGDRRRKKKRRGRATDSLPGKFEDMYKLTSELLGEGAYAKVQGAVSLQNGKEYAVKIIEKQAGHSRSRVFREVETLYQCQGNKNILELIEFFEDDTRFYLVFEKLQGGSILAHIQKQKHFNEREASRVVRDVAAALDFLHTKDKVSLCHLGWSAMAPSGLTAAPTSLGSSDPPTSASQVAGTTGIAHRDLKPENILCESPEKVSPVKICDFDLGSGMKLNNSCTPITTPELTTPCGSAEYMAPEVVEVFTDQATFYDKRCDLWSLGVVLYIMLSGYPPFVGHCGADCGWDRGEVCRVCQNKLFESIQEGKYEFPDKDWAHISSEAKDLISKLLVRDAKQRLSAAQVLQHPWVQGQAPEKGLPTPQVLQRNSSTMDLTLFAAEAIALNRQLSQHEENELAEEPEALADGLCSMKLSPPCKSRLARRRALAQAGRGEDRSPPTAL

[27] = target: Mitogen-activated protein kinase kinase kinase 9 (Homo sapiens) (UniProt P80192); conditions: Compound concentration 1000.0 nM
[28] = target: Serine/threonine-protein kinase 4 (Homo sapiens) (UniProt Q13043); conditions: Compound concentration 1000.0 nM
Serine/threonine-protein kinase 4 (Homo sapiens), sequence (Q13043 whole entry): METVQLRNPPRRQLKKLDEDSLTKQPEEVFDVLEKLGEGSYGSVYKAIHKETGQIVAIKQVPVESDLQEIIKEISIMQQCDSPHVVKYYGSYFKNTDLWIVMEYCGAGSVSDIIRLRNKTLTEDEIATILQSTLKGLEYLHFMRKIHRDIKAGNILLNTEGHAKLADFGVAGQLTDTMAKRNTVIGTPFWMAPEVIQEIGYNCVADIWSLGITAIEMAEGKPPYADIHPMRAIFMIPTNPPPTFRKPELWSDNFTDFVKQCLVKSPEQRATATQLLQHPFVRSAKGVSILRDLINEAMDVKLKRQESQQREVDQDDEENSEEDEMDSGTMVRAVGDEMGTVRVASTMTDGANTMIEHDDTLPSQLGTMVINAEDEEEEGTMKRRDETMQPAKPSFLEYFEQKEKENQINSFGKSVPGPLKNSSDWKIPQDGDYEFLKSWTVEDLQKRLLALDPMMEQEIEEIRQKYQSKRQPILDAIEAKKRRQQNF

[29] = target: Macrophage-stimulating protein receptor (Homo sapiens) (UniProt Q04912); conditions: Compound concentration 1000.0 nM
[30] = target: Serine/threonine-protein kinase 26 (Homo sapiens) (UniProt Q9P289); conditions: Compound concentration 1000.0 nM
Serine/threonine-protein kinase 26 (Homo sapiens), sequence (Q9P289 2-416 limits assumed): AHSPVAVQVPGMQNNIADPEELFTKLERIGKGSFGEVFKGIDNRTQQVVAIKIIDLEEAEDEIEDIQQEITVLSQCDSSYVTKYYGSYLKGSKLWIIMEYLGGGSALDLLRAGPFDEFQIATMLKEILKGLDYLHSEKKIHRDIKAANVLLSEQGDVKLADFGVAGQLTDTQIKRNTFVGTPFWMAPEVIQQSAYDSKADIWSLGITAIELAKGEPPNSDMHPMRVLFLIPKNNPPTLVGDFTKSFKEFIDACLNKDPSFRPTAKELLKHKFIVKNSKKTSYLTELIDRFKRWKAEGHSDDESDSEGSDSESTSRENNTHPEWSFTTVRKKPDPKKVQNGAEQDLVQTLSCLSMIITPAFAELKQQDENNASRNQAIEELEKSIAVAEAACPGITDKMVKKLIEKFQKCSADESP

[31] = target: Calcium-dependent protein kinase 1 (Plasmodium falciparum) (UniProt P62344); conditions: Compound concentration 1000.0 nM
[32] = tested on: Phosphatidylinositol 4,5-bisphosphate 3-kinase catalytic subunit alpha isoform (Homo sapiens), P42336 [E542K]; conditions: Compound concentration 1000.0 nM
[33] = target: Phosphatidylinositol 5-phosphate 4-kinase type-2 gamma (Homo sapiens) (UniProt Q8TBX8); conditions: Compound concentration 1000.0 nM
Phosphatidylinositol 5-phosphate 4-kinase type-2 gamma (Homo sapiens), sequence (Q8TBX8 whole entry): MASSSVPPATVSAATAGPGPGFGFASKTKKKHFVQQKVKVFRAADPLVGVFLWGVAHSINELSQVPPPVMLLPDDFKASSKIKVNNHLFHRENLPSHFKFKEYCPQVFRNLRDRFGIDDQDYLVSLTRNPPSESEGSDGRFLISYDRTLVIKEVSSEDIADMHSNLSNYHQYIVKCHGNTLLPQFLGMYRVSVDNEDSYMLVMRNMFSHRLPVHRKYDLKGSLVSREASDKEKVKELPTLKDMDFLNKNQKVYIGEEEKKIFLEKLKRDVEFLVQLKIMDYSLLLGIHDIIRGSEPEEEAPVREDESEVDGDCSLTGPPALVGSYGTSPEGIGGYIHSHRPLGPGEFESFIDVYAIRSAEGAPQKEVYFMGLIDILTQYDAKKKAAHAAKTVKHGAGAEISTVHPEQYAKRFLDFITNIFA

[34] = target: Membrane-associated tyrosine- and threonine-specific cdc2-inhibitory kinase (Homo sapiens) (UniProt Q99640); conditions: Compound concentration 1000.0 nM
[35] = target: Serine/threonine-protein kinase PLK3 (Homo sapiens) (UniProt Q9H4B4); conditions: Compound concentration 1000.0 nM
[36] = target: Protein kinase C iota type (Homo sapiens) (UniProt P41743); conditions: Compound concentration 1000.0 nM
[37] = target: cGMP-dependent protein kinase 2 (Homo sapiens) (UniProt Q13237); conditions: Compound concentration 1000.0 nM
[38] = target: Serine/threonine-protein kinase PRP4 homolog (Homo sapiens) (UniProt Q13523); conditions: Compound concentration 1000.0 nM
[39] = tested on: Proto-oncogene tyrosine-protein kinase receptor Ret (Homo sapiens), P07949 [V804L]; conditions: Compound concentration 1000.0 nM
Proto-oncogene tyrosine-protein kinase receptor Ret (Homo sapiens), P07949 [V804L], sequence (P07949 whole entry V804L): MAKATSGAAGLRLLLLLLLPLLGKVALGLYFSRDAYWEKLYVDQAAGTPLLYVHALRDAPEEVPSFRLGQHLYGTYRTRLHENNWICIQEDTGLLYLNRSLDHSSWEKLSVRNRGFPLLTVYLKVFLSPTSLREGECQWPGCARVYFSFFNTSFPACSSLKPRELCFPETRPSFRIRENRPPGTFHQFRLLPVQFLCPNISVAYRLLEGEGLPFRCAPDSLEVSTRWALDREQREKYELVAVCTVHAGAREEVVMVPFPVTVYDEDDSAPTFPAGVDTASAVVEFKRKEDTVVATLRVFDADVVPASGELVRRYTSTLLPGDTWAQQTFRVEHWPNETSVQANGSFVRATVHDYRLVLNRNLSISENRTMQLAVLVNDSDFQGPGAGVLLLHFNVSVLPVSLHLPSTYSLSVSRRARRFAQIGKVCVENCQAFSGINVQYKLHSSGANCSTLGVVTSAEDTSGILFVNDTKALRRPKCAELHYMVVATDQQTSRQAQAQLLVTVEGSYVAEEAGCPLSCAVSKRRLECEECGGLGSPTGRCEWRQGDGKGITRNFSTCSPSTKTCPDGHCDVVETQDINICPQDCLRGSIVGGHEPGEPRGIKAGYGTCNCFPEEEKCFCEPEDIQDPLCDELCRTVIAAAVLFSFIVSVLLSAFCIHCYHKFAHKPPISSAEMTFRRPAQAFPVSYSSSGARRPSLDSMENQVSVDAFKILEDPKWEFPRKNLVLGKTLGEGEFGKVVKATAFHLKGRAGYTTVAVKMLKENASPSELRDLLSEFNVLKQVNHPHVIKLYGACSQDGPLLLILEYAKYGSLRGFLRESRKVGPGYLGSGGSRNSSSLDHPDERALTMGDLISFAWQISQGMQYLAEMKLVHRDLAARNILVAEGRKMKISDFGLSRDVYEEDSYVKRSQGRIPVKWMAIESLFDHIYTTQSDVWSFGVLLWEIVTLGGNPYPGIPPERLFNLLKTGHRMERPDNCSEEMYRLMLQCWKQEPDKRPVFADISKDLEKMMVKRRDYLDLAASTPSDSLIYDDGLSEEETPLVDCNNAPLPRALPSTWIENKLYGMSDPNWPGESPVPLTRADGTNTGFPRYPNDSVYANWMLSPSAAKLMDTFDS

[40] = target: Serine/threonine-protein kinase Sgk1 (Homo sapiens) (UniProt O00141); conditions: Compound concentration 1000.0 nM
[41] = target: STE20/SPS1-related proline-alanine-rich protein kinase (Homo sapiens) (UniProt Q9UEW8); conditions: Compound concentration 1000.0 nM
[42] = target: TRAF2 and NCK-interacting protein kinase (Homo sapiens) (UniProt Q9UKE5); conditions: Compound concentration 1000.0 nM
[43] = target: Vascular endothelial growth factor receptor 2 (Homo sapiens) (UniProt P35968); conditions: Compound concentration 1000.0 nM
[44] = target: 5-hydroxytryptamine receptor 1A (Homo sapiens) (UniProt P08908); conditions: Compound concentration 10.0 uM
[45] = target: Alpha-1B adrenergic receptor (Homo sapiens) (UniProt P35368); conditions: Compound concentration 10.0 uM

Cc1nc(Cc2cccc(C(F)(F)F)c2)sc1-c1ccc(C(N)=O)nc1 [TP-024n]
inactive: residual activity [1] 96% | residual activity [2] 100% | residual activity [3] 96% | residual activity [4] 100% | residual activity [5] 62% | residual activity [6] 100% | residual activity [7] 100% | residual activity [8] 98% | residual activity [9] 85% | residual activity [10] 100% | residual activity [11] 90% | residual activity [12] 94% | residual activity [13] 100% | residual activity [14] 100% | residual activity [15] 100% | residual activity [16] 87% | residual activity [17] 100% | residual activity [18] 88% | residual activity [19] 86% | residual activity [20] 82% | residual activity [21] 100% | residual activity [22] 96% | residual activity [23] 72% | residual activity [24] 90% | residual activity [25] 85% | residual activity [26] 100% | residual activity [27] 100% | residual activity [28] 100% | residual activity [29] 100% | residual activity [30] 83% | residual activity [31] 100% | residual activity [32] 66% | residual activity [34] 67% | residual activity [35] 94% | residual activity [36] 100% | residual activity [37] 84% | residual activity [38] 70% | residual activity [39] 86% | residual activity [40] 100% | residual activity [41] 100% | residual activity [42] 100% | residual activity [43] 86% | inhibition [44] -2.04% | inhibition [45] 24.6%
active: residual activity [33] 0.3%

Cc1cc(-n2nc(Cc3cc(F)cc(C(F)(F)F)c3)nc2C)ccc1C(N)=O [TP-024]
inactive: residual activity [1] 100% | residual activity [2] 100% | residual activity [3] 98% | residual activity [4] 100% | residual activity [5] 100% | residual activity [6] 100% | residual activity [7] 100% | residual activity [8] 100% | residual activity [9] 100% | residual activity [10] 100% | residual activity [11] 91% | residual activity [12] 100% | residual activity [13] 100% | residual activity [14] 98% | residual activity [15] 100% | residual activity [16] 100% | residual activity [17] 100% | residual activity [18] 100% | residual activity [19] 99% | residual activity [20] 97% | residual activity [21] 100% | residual activity [22] 100% | residual activity [23] 98% | residual activity [24] 100% | residual activity [25] 100% | residual activity [26] 100% | residual activity [27] 100% | residual activity [28] 100% | residual activity [29] 100% | residual activity [30] 100% | residual activity [31] 100% | residual activity [32] 73% | residual activity [33] 100% | residual activity [34] 88% | residual activity [35] 100% | residual activity [36] 100% | residual activity [37] 86% | residual activity [38] 54% | residual activity [39] 100% | residual activity [40] 100% | residual activity [41] 100% | residual activity [42] 100% | residual activity [43] 100% | inhibition [44] -4.42% | inhibition [45] 6.84%
